Assay results from ChEMBL document CHEMBL1126415, “Phosphonate derivatives of N9-benzylguanine: a new class of potent purine nucleoside phosphorylase inhibitors” (Bioorg Med Chem Lett, 1992).

What was measured:
[1] = molecular target: T1, Purine nucleoside phosphorylase (Bos taurus, UniProt P55859); assay: Inhibitory activity against calf spleen purine nucleoside phosphorylase in the presence of 1 mM (pi) […]
T1 sequence (P55859 whole entry): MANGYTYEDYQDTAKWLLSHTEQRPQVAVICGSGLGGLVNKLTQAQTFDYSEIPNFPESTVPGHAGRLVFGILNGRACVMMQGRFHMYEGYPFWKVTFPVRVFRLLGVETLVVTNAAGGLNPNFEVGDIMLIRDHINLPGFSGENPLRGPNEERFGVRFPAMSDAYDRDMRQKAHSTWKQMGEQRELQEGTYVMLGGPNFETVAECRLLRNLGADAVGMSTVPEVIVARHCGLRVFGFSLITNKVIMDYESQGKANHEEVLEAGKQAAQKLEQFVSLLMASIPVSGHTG

[2] = molecular target: T1, Purine nucleoside phosphorylase; assay: Inhibitory concentration against calf spleen purine nucleoside phosphorylase in the presence of 50 mM (pi) […]
[3] = molecular target: T2, Purine nucleoside phosphorylase (Homo sapiens, UniProt P00491); assay: Inhibitory activity against human erythrocytic purine nucleoside phosphorylase in the presence of 1 mM (pi) […]
T2 sequence (P00491 whole entry): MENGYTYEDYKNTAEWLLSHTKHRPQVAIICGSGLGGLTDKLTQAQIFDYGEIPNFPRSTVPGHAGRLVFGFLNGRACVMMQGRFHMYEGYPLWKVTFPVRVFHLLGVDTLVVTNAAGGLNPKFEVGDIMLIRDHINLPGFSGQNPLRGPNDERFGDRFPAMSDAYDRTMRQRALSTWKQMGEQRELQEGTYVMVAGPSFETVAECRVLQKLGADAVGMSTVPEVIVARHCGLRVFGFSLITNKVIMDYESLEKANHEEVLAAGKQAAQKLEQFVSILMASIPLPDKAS

[4] = molecular target: T2, Purine nucleoside phosphorylase; assay: Inhibitory concentration against human erythrocytic purine nucleoside phosphorylase in the presence of 50 mM (pi) […]
[5] = molecular target: T2, Purine nucleoside phosphorylase; assay: Tested for its inhibitory activity against human erythrocytic purine nucleoside phosphorylase

Ki [5] | Structure (SMILES) | IC50 [2] | IC50 [4] | other results
– | Nc1nc(O)c2ncn(Cc3ccccc3/C=C(\F)P(=O)(O)O)c2n1 | 0.06 µM | – | Ki [1]: 0.0008 µM
– | Nc1nc(O)c2ncn(Cc3ccccc3/C=C/P(=O)(O)O)c2n1 | 0.085 µM | 0.155 µM | Ki [3]: 0.0032 µM
– | Nc1nc(O)c2ncn(Cc3ccccc3CC(F)(F)P(=O)(O)O)c2n1 | 0.2 µM | – | –
– | Nc1nc(O)c2ncn(Cc3ccccc3C(F)C(F)(F)P(=O)(O)O)c2n1 (stereo not given) | 0.1 µM | 0.085 µM | –
0.018 µM | Nc1nc2c(ncn2CCCCC(F)(F)P(=O)(O)O)c(=O)[nH]1 | – | – | –
0.2 µM | Nc1nc(O)c2nc(N)n(Cc3ccccc3)c2n1 | – | – | –
